# Laboratory results reported in patent US7598244B2, “[1,2,4]triazolo[1,5,a]pyrimidin-2-ylurea derivative and use thereof” (Nippon Kayaku Kabushiki Kaisha, priority 2003, dated 2009).
# Tested on: MHC class I molecules of T1 cells (human lymphoma cell line 174×CEM.)
# Experiment: Effect on expression of MHC class I from T1 cells (flow cytometry, MFI)
# Format: cell-based
# Details: 3 days culture
# Description: Effect on Expression of MHC Class I from T1 Cells (Human Lymphoma Cell Line 174×CEM.)
# Using a 96-well flat bottom microplate, T1 cells (5.7×10^3 cells/200 μl/well) were cultured in an RPMI 1640 medium (Iwaki Glass) containing 10% fetal bovine serum (hereinafter abbreviated as FBS; Iruvine Scientific) in an incubator containing 5% carbon dioxide at 37° C. for 3 days, in the presence of a test compound having each concentration obtained by dilution at a common ratio route of 10 from 400 μM. After completion of the culture, the cells were stained with fluoroisothiocyanate-labeled mouse anti-human MHC class I monoclonal antibody (an antibody produced from the cell line W6/32 (ATCC No. CRL 1991)). The mean fluorescence intensity of the stained cells (hereinafter referred to as MFI) was measured using flow cytometry FACScan (BD). The obtained value was defined as an expression level of MHC class I molecules. A test compound concentration necessary for suppressing 20% of the expression level of MHC class I molecules (EC20 value) was calculated using the following formula (1).
# [formula] • Eexp: MFI of cultured cells containing test compound after being stained with antibody • Cexp: MFI of cultured cells containing no test compounds after being stained with antibody
row,Compound,EC20 (concentration necessary for suppressing 20% of the expression level of MHC class I molecules)
1,"1-(4-methoxy-1-methylbutyl)-3-[7-(4-methoxyphenyl)-[1,2,4]triazolo[1,5-a]pyrimidin-2-yl]urea [Example 333]",410 nM
2,COc1cccc(C(C)NC(=O)Nc2nc3nccc(-c4cccc(OCC5CCCO5)c4)n3n2)c1 (mixture of isomers) [Example 206],220 nM
3,COc1ccc(-c2ccnc3nc(NC(=O)NC(C)Cc4ccc(Cl)cc4)nn23)cc1 (racemic) [Example 142],60 nM
4,COc1ccc(-c2ccnc3nc(NC(=O)NC(C)c4cccc(OS(C)(=O)=O)c4)nn23)cc1 (racemic) [Example 195],60 nM
5,COc1ccc(-c2ccnc3nc(NC(=O)NC(C)c4cccc(O)c4)nn23)cc1 (racemic) [Example 196],170 nM
6,COc1ccc(-c2ccnc3nc(NC(=O)NC(C)c4cccc(OC(=O)OCc5ccccc5)c4)nn23)cc1 (racemic) [Example 197],210 nM
7,COc1ccc(-c2ccnc3nc(NC(=O)NC(C)c4cccc(OCC(C)C)c4)nn23)cc1 (racemic) [Example 230],220 nM
8,COc1ccc(-c2ccnc3nc(NC(=O)NC(C)c4cccc(OC(C)C)c4)nn23)cc1 (racemic) [Example 231],50 nM
9,COc1ccc(-c2ccnc3nc(NC(=O)NC(C)CC(C)C)nn23)cc1 (racemic) [Example 235],590 nM
10,COc1ccc(-c2ccnc3nc(NC(=O)NC(C)CCC(C)C)nn23)cc1 (racemic) [Example 236],80 nM
11,CNC(=O)Nc1nc2nccc(-c3cccs3)n2n1 [Example 013],480 nM
12,O=C(Nc1nc2nccc(-c3ccccc3)n2n1)NC1CCCCC1 [Example 014],570 nM
13,O=C(Nc1nc2nccc(-c3cccc(Cl)c3)n2n1)NC1CCCCC1 [Example 016],730 nM
14,COc1cccc(-c2ccnc3nc(NC(=O)NC4CCCCC4)nn23)c1 [Example 017],220 nM
15,COc1cccc(-c2ccnc3nc(NC(=O)NCc4ccccc4)nn23)c1 [Example 019],1100 nM
16,O=C(Nc1ccc(O)cc1)Nc1nc2nccc(-c3cccs3)n2n1 [Example 023],430 nM
17,O=C(NCc1ccccc1)Nc1nc2nccc(-c3cccc(O)c3)n2n1 [Example 025],500 nM
18,CNC(=O)Nc1nc2nccc(-c3ccc(OC)cc3)n2n1 [Example 026],900 nM
19,O=C(Nc1nc2nccc(-c3cccs3)n2n1)NC1CCCC1 [Example 028],152 nM
20,CCNC(=O)Nc1nc2nccc(-c3ccc(OC)cc3)n2n1 [Example 031],400 nM
21,CCCCNC(=O)Nc1nc2nccc(-c3ccc(OC)cc3)n2n1 [Example 032],250 nM
22,COc1ccc(-c2ccnc3nc(NC(=O)NC45CC6CC(CC(C6)C4)C5)nn23)cc1 [Example 035],380 nM

row,Compound,EC20 (concentration necessary for suppressing 20% of the expression level of MHC class I molecules)
1,COc1cccc(-c2ccnc3nc(NC(=O)NC(C)C)nn23)c1 [Example 044],480 nM
2,CC(C)NC(=O)Nc1nc2nccc(-c3ccc4c(c3)CCO4)n2n1 [Example 046],340 nM
3,C[C@H](NC(=O)Nc1nc2nccc(-c3cccs3)n2n1)C(=O)OC(C)(C)C [Example 050],330 nM
4,CC(C)NC(=O)Nc1nc2nccc(-c3ccc(O)cc3)n2n1 [Example 053],370 nM
5,COc1ccc(-c2ccnc3nc(NC(=O)N[C@H](C(=O)O)C(C)C)nn23)cc1 [Example 054],630 nM
6,CNC(=O)[C@@H](NC(=O)Nc1nc2nccc(-c3ccc(OC)cc3)n2n1)C(C)C [Example 055],690 nM
7,COc1ccc(-c2ccnc3nc(NC(=O)N[C@H](C(=O)N(C)C)C(C)C)nn23)cc1 [Example 056],550 nM
8,COc1ccc(-c2ccnc3nc(NC(=O)NCCN4CCOCC4)nn23)cc1 [Example 064],670 nM
9,COc1ccc(-c2ccnc3nc(NC(=O)NCCc4ccccn4)nn23)cc1 [Example 065],350 nM
10,COc1ccc(-c2ccnc3nc(NC(=O)NCCCn4ccnc4)nn23)cc1 [Example 066],720 nM
11,O=C(Nc1nc2nccc(-c3ccc(O)c(O)c3)n2n1)NC1CCCCC1 [Example 068],140 nM
12,COc1ccc(-c2ccnc3nc(NC(=O)N[C@H](C(=O)N4CCOCC4)C(C)C)nn23)cc1 [Example 070],480 nM
13,COc1ccc(-c2ccnc3nc(NC(=O)N[C@H](C(=O)NC4CCN(Cc5ccccc5)CC4)C(C)C)nn23)cc1 [Example 074],550 nM
14,COc1ccc(-c2ccnc3nc(NC(=O)N[C@H](C(=O)NCc4cccnc4)C(C)C)nn23)cc1 [Example 078],670 nM
15,COc1ccc(-c2ccnc3nc(NC(=O)N[C@H](C(=O)NCCN4CCOCC4)C(C)C)nn23)cc1 [Example 079],970 nM
16,COc1ccc(-c2ccnc3nc(NC(=O)N[C@H](C(=O)NCCc4ccccn4)C(C)C)nn23)cc1 [Example 080],710 nM
17,COc1ccc(-c2ccnc3nc(NC(=O)NCc4ccccn4)nn23)cc1 [Example 083],870 nM
18,CC(C)NC(=O)Nc1nc2nccc(-c3cccc(O)c3)n2n1 [Example 084],420 nM
19,O=C(Nc1nc2nccc(-c3cccc(O)c3)n2n1)NC1CCCCC1 [Example 085],400 nM
20,COc1ccc(-c2ccnc3nc(NC(=O)NC(C)C)nn23)cc1OC [Example 086],340 nM
21,CC(C)NC(=O)Nc1nc2nccc(-c3ccc4c(c3)OCO4)n2n1 [Example 087],780 nM
22,COc1ccc(-c2ccnc3nc(NC(=O)N[C@H](C(=O)Nc4ccccc4)C(C)C)nn23)cc1 [Example 088],150 nM
